Assays:
Assay type in all cases: cell-based
[1] = test system: embryonic stem cells (hESC2); assay: Screening as DNA vectors in embryonic stem cells, flow cytometry; conditions: 75 ng plasmid DNA, 48 hours after transfection, flow cytometer
From the text: (§1) Cell line: embryonic stem cells (hESC2, cultured according to reported methods: Stem Cells, 2005, 23, 544-549)
(§2) Medium: mTeSR1 (STEMCELL)
(§3) Mode of screening: cell transfection on 96-well plates
(§4) Detection (readout): percentage of the number of GFP fluorescent cells relative to the total number of cells. Lipofectamine Stem was used as the positive control.
Method: an 8-channel pipette was used for sample addition. The contents shown were for a single well of a 96-well flat plate.
1. Stem cells were cultured to 3-5×10^4 cells per well in a 96-well plate treated with matrigel.
2. The compound (0.01 mmol) prepared in Example 1 was dissolved in 1 mL of anhydrous ethanol. After ultrasonically dissolved, 10 μL of the resultant amino lipid solution in ethanol was taken and mixed with 5 μL of DOPE solution in ethanol ([…]). The obtained mixture was then added with 35 μL of 0.2 M sodium acetate buffer (pH 5.6), and vortexed at a constant rotating speed for 30 s. Then, 4 μL was taken from the obtained product and added to 46 μL of 0.02 M sodium acetate buffer (pH 5.6), and vortexed at a constant rotating speed for 30 s to form a liposome solution. 5 μL of this liposome solution was mixed with 75 ng of plasmid DNA (pSin-EGFP-IRES-Puro) dissolved in 5 μL of 0.02 M sodium acetate buffer, and allowed to stay at room temperature for 30 min to form a lipid/DNA transfection complex.
3. 10 μL of the lipid/DNA transfection complex was incubated at room temperature for 30 min, followed by addition of 90 μL mTeSR1 medium was added and mixing with a pipette. 100 μL of the mixture was added to separate wells of a 96-well culture plate and placed in an incubator containing 5% CO2 at 37° C.
4. 48 hours after transfection, the cells were digested with 0.05% Trypsin-EDTA. The cells were resuspended in a PBS buffer and filtered. The cell suspension was placed in a flow cytometer and the number of GFP-expressing cells in no less than 2000 cells was measured so as to obtain the absolute efficiency of cell transfection. The relative efficiency of cell transfection was obtained by comparing the cell transfection efficiency with the positive control Lipofectamine Stem.

[2] = test system: embryonic stem cells (hESC2); assay: Screening as mRNA vectors in embryonic stem cells; conditions: 50 ng EGFP mRNA per well
Procedure: as §1, §2
Mode of screening: cell transfection on 96-well plate
as §4
Method: the experimental method was basically the same with Example 10, and the mass of EGFP mRNA for transfection was 50 ng per well.

MCF7 cells [3] = assay: Transfection of MCF7 cell line, DNA vectors; set-up: concentration or dose not given beside the values; conditions: plasmid DNA, GFP cells / total cells
Procedure: (§5) Cell line: MCF7 cells (ATCC HTB-22)
Medium DMEM supplemented with […] fetal bovine serum
(§6) Screening: cell transfection on 96-well plates
Detection (readout): percentage of the number of GFP fluorescent cells relative to the total number of cells (the total number of cells was determined using nucleus dye Hoechst). Lipofectamine2000 was used as the positive control, according to the manufacturer's instructions.
(§7) Method: the experimental method was basically the same with Example 4.

Hela cells [4] = assay: Transfection of Hela cell line, mRNA vectors; conditions: 50 ng EGFP mRNA per well
Outline: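 Transfection efficiency was scored as GFP-fluorescent cells over Hoechst-stained total nuclei, with Lipofectamine2000 as reference reagent. Each well of HeLa cells, grown in DMEM plus 10% FBS, received 50 ng EGFP mRNA.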

Hela cells [5] = assay: Transfection of Hela cell line, DNA vectors; conditions: 75 ng plasmid DNA, GFP cells / total cells
Outline: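 Amino lipid/DOPE liposomes in sodium acetate pH 5.6 were complexed with 75 ng psin-EGFP-IRES-Puro plasmid for 30 min at room temperature, then mixed with 3-5×10^4 Hela cells in DMEM/10% FBS at 37° C. Hoechst stain after 20-24 h, imaging after a further 20-24 h. Efficiency = GFP-positive cells / total nuclei.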

cardiomyocytes [6] = assay: Screening as mRNA vectors in cardiomyocytes; conditions: 50 ng EGFP mRNA per well
Procedure: Cell line: cardiomyocytes (obtained from induced differentiation of hESC according to reported methods: J Mol. Cell. Cardiol. 2011, 51, 288-298)
(§8) Medium: DMEM supplemented with 10% fetal bovine serum (Invitrogen)
as §3
(§9) Detection (readout): percentage of the number of GFP fluorescent cells relative to the total number of cells (the total number of cells was determined using nucleus dye Hoechst). Lipofectamine Stem (Invitrogen) was used as the positive control, according to the manufacturer's instructions.
Method: the experimental method was basically the same with Example 4, and the mass of EGFP mRNA for transfection was 50 ng per well.

cardiomyocytes [7] = assay: Screening as DNA vectors in cardiomyocytes; set-up: concentration or dose not given beside the values; conditions: method as Example 4
Procedure: Cell line: cardiomyocytes (obtained from induced differentiation of hESC according to reported methods: J. Mol. Cell. Cardiol. 2011, 51, 288-298)
as §8, §3, §9, §7

MCF7 cells [8] = assay: Transfection of MCF7 cell line, mRNA vectors; conditions: 50 ng EGFP mRNA per well
Procedure: as §5
Medium: DMEM supplemented with 10 fetal bovine serum (Invitrogen)
as §6
Detection (readout): percentage of the number of GFP fluorescent cells relative to the total number of cells (the total number of cells was determined using nucleus dye Hoechst). Lipofectamine2000 (Invitrogen) was used as the positive control.
Method: the experimental method was basically the same with Example 4, and the mass of EGFP mRNA (TriLink) for transfection was 50 ng per well.

HEK293 cells [9] = assay: Preliminary screening as DNA vectors, GFP transfection of HEK293 cells; conditions: HEK293 cells; lipid/DOPE liposome with 75 ng plasmid DNA (psin-EGFP-IRES-Puro); number of cells expressing GFP divided by total number of nuclei (Hoechst)
Outline: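 First, amino lipid and DOPE were vortexed in sodium acetate buffer (pH 5.6) to form liposomes. Next, these were held with 75 ng EGFP plasmid at room temperature for 30 min. Finally, HEK293 cells were added, cultured at 37° C., Hoechst-stained, and GFP+/total nuclei scored by imaging.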

HEK293 cells [10] = assay: Preliminary screening as mRNA vectors, EGFP mRNA transfection of HEK293 cells; conditions: HEK293 cells, 96-well plates, EGFP mRNA 50 ng per well; percentage of GFP fluorescent cells relative to total number of cells (Hoechst)
Outline: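 Screening format: EGFP mRNA transfection (50 ng/well) into HEK293 in 10% FBS-supplemented DMEM. Percent green fluorescent cells, normalised to Hoechst nuclear count, gave the value; Lipofectamine2000 was the reference transfectant.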

SMILES	Absolute DNA transfection efficiency in embryonic stem cells [1]	Absolute mRNA transfection efficiency in embryonic stem cells [2]	Absolute DNA transfection efficiency in MCF7 cells (MCF7 cells [3])	Absolute mRNA transfection efficiency in Hela cells (Hela cells [4])	Absolute DNA transfection efficiency in Hela cells (Hela cells [5])	Absolute mRNA transfection efficiency in cardiomyocytes (cardiomyocytes [6])	Absolute DNA transfection efficiency in cardiomyocytes (cardiomyocytes [7])	Absolute mRNA transfection efficiency in MCF7 cells (MCF7 cells [8])	Absolute DNA transfection efficiency in HEK293 cells (HEK293 cells [9])	Absolute mRNA transfection efficiency in HEK293 cells (HEK293 cells [10])
CCCCCCCCCCCNc1nc(NCCCN2CCOCC2)nc(SCCCCCCCCC)n1 [Compound S9N11D8]	0.6%	5.9%	13.1%	13.9%	13.9%	4.4%	0.8%	2.7%		
CCCCCCCCCCCNc1nc(NCCCN2CCN(C)CC2)nc(SCCCCCCCCC)n1 [Compound S9N11D9]	6.6%	2.9%	27.3%	24.6%	24.3%	45.4%	1.1%	11.8%		
CCCCCCCCCCCSc1nc(NCCCCCCCCC)nc(NCCCN2CCOCC2)n1 [Compound S11N9D8]	0.8%	3.2%	0.9%	4.3%	4.3%	2.6%	1.7%	13.1%		
CCCCCCCCCCCCNc1nc(NCCN2CCCC2)nc(SCCCCCCCCC)n1 [Compound S9N12D3]	2.3%	4.6%	27.5%	23.7%	23.7%	29.2%	1.1%	15.9%		
CCCCCCCCCCCSc1nc(NCCCCCCCCC)nc(NCCCN2CCN(C)CC2)n1 [Compound S11N9D9]	1.4%	33.5%	33.5%	11.8%	11.8%	21.0%	0.3%	27.3%		
CCCCCCCCCCCNc1nc(NCCCN(C)C)nc(SCCCCCCCCC)n1 [Compound S9N11D6]	1.4%	5.8%	32.6%	27.7%	27.7%	5.0%	1.9%	37.2%		
CCCCCCCCCCCCCCCCSc1nc(NCCCN2CCOCC2)nc(SCCCCCCCCC)n1 [Compound S9S16D8]			6.2%	11.6%	11.6%			7.7%	23.2%	11.2%
CCCCCCCCCCCCCCCCSc1nc(NCCCN(C)C)nc(SCCCCCCCCC)n1 [Compound S9S16D6]			39.7%	27.8%	27.8%			34.2%	55.4%	71.5%
CCCCCCCCCCCCCCCCSc1nc(NCCN2CCCC2)nc(SCCCCCCCCC)n1 [Compound S9S16D3]			14.1%	0.0%	0.0%			3.0%	0.0%	25.3%
CCCCCCCCCCCCCCCCSc1nc(NCC2CCN(C)CC2)nc(SCCCCCCCCC)n1 [Compound S9S16D10]			36.9%	28.6%	28.6%			46.0%	56.9%	66.4%
CCCCCCCCCCCCCCCCSc1nc(NCCCN2CCN(C)CC2)nc(SCCCCCCCCC)n1 [Compound S9S16D9]			23.0%	6.9%	6.9%			33.8%	13.9%	41.4%
CCCCCCCCCCCSc1nc(NCCCN(C)C)nc(SCCCCCCC)n1 [Compound S7S11D6]			38.1%	14.5%	14.5%			26.1%		
CCCCCCCCCCCSc1nc(NCCCCCCC)nc(NCCN2CCCC2)n1 [Compound S11N7D3]			4.4%	9.8%	9.8%			5.8%		

From US20230123334A1, “AMINO LIPID COMPOUND, PREPARATION METHOD THEREFOR, AND APPLICATION THEREOF” (SHENZHEN SHENXIN BIOTECHNOLOGY CO., LTD., priority 2020, published 2023)
